{"source": "patent US20110008475A1", "about": "“USE OF AN EMULSION OF MINT OIL OR OF L-CARVONE FOR THE FUNGICIDAL TREATMENT OF FRUIT, VEGETABLES OR PLANTS” (priority 2007, published 2011)", "test_system": "Peronospora brassicae (cabbage mildew)", "assay": "Effect of L-carvone on cabbage mildew (infected cabbages treated after inoculation)", "format": "in vivo", "details": "cabbages infected with Peronospora brassicae, treated rapidly after inoculation; L-carvone at a minimal concentration of 1%; 21 days; FIG. 1", "description": "Cabbages were infected with Peronospora brassicae (cabbage mildew) then treated rapidly after inoculation with L-carvone or Aliette.", "data": [{"compound": "C=C(C)C1CC=C(C)C(=O)C1", "note": "[L-carvone, 2-methyl-5-(1-methylethenyl)-2-cyclohexen-1-one]", "values": [{"measurement": "control of the infection by cabbage mildew", "result": "able to control the infection effectively for 21 days"}]}]}
